Reference: paper PMC8835841, “Novel NK1R-Targeted ^68Ga-/^177Lu-Radioconjugates with Potential Application against Glioblastoma Multiforme: Preliminary Exploration of Structure–Activity Relationships” (International Journal of Molecular Sciences, 2022)

What was measured:
rNK1R = target: T1, rNK1R (Rattus norvegicus, UniProt P14600); assay: Competitive radioligand binding assay, rat brain homogenates, [3H]-(Sar9,Met(O2)11)-Substance P; details: mean of three independent experiments in duplicate unless stated; for IC50: read-out: IC50 (Mean ± SD) rNK1R
T1 construct: As a source of the receptor proteins, homogenates obtained from rat brains; from tissue; host or cells: rat brain homogenate
Method: (§1) The binding affinity of the tested compounds for human and rat NK1R was determined in competitive radioligand binding assays following the method previously described. As a source of the receptor proteins, homogenates obtained from rat brains (obtained as described in Ref [30]) or homogenates made from hNK1-CHO cells were used. […] The final reaction volumes were 250 μL and 1 mL, for the human and rat NK1R determinations, respectively. […] The binding reaction mixtures were incubated in a shaking water bath at 25 °C for 60 min. The reaction was terminated by rapid filtration through Whatman GF/B filter (Gaithersburg, MD) presoaked in 0.5% polyethyleneimine and washed three times with 2 mL of cold saline. The filters were placed in 24-well plates and immersed in a Betaplate Scint scintillation solution (Perkin Elmer, Waltham, MA, USA). The filter-bound radioactivity was determined by scintillation counter MicroBeta LS, Trilux (PerkinElmer, Waltham, MA, USA).
(§2) The displacement curves were drawn and the mean IC50 values were determined with standard deviations (GraphPad Prism version 8.0, San Diego, CA, USA). At least three independent experiments (carried out in duplicate) were performed.

hNK1R = target: T2, hNK1R (Homo sapiens, UniProt P25103); assay: Competitive radioligand binding assay, hNK1-CHO cell homogenates, [3H]-(Sar9,Met(O2)11)-Substance P; details: for IC50: hNK1-CHO cell homogenates, mean of three independent experiments in duplicate unless stated, read-out: IC50 (Mean ± SD) hNK1R; for fold weaker hNK1R binding than parent compound: relative to L732,138 (1c)
T2 construct: expressed in transfected cells; host or cells: CHO-K1 (hNK1-CHO), gift from Dr. Attila Keresztes and Dr. John M. Streicher
Method: The CHO-K1 cells with a stable overexpression of the human NK1 receptor, denoted further on as hNK1-CHO cells, were obtained as a gift from Dr. Attila Keresztes and Dr. John M. Streicher. The cells were maintained in a humidified atmosphere with 5% CO2 at 37 °C, in Ham’s F12 medium (Corning, Corning, NY, USA) supplemented with 10% Foetal Bovine Serum (CytoGen, Wetzlar, Germany) and 400 μg/mL G418 (Corning, Corning, NY, USA).
When the cells reached approximately 90% confluence, they were harvested by treatment with 0.05% trypsin/EDTA (Corning, Corning, NY, USA). After centrifugation at 1500 rpm for 5 min, the cells were homogenized in a glass tissue homogenizer in ice-cold 50 mM Tris-HCl buffer (pH 7.4) with 5 mM MnCl2. The preparation was collected by centrifugation at 13,000 rpm for 25 min at 4 °C, and then the pellet was suspended in 50 mM Tris-HCl buffer. The homogenates were stored at −80 °C for later use. The BCA assay (Thermo Scientific, Waltham, MA, USA) was used to determine the protein concentration in the homogenates.
as §1, §2

physchem = format: physicochemical
Method: A lipophilicity study was also performed right after the SPE method purification and ethanol evaporation. For each DOTA radioconjugate, the lipophilicity value was estimated as the logarithm of the distribution coefficient (D) based on the ratio of the radioactivity of the organic phase to the radioactivity of the aqueous phase in the n-octanol/PBS (pH 7.40) system. Simultaneously, the stability of the studied radioconjugate during the experiment was verified through the HPLC analysis of the aqueous phase.
A solution of isolated radioconjugate (approximately 0.5 MBq for ^177Lu-radioconjugates or 5 MBq for ^68Ga-radioconjugates) in 500 µL of 0.1 M PBS buffer (pH 7.40) and 500 µL of n-octanol was vigorously stirred and centrifuged (13,500 rpm for 5 min) to separate the immiscible phases. Then, the radioactivity of samples from both phases were measured using a well-type NaI(Tl) detector. The distribution coefficient, D, was calculated dividing the radioactivity of the radioconjugate in the organic phase to that in the aqueous phase. Each experiment was performed in triplicate and averaged. In parallel, the aqueous phases were analysed by HPLC to confirm the stability of studied radioconjugate during the experiment period. The lipophilicity value of each radioconjugates was expressed as the logarithm of its D value.

[1] = pH 7.4, logD7.4 (Mean ± SD) 177Lu-
[2] = pH 7.4, logD7.4 (Mean ± SD) 68Ga-

T2 sequence (P25103 whole entry): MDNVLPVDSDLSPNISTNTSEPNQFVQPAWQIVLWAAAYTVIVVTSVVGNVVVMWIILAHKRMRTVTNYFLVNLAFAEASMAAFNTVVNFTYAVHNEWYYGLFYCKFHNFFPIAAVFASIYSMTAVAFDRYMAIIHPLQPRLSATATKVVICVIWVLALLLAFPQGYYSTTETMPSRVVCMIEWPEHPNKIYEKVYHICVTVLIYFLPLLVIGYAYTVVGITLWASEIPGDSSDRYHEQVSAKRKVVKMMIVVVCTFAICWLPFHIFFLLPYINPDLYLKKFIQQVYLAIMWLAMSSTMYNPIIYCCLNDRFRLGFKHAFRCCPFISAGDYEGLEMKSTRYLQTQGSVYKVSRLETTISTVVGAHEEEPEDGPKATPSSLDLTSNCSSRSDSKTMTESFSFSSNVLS
T1 sequence (P14600 whole entry): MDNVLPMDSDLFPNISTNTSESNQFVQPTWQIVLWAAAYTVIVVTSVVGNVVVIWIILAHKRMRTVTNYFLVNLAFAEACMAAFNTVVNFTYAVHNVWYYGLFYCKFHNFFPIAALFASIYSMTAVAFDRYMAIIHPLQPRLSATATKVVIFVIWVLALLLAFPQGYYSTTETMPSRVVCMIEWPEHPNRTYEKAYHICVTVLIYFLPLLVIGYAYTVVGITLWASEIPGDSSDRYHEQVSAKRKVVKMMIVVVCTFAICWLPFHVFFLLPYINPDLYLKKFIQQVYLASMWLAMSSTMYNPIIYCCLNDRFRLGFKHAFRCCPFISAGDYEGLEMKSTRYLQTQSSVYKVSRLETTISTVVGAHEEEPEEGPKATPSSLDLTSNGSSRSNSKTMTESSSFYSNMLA

| Structure (SMILES) | IC50 (rNK1R) [nM] | IC50 (hNK1R) [nM] | other results |
| --- | --- | --- | --- |
| C[C@@H](NC(=O)CN1CCN(CC(=O)O)CCN(CC(=O)O)CCN(CC(=O)O)CC1)C(=O)N[C@H](C)C(=O)N[C@@H](Cc1c[nH]c2ccccc12)C(=O)OCc1cc(C(F)(F)F)cc(C(F)(F)F)c1 [[^177Lu]Lu-3d, metal not drawn] |  |  | logD (physchem; [1]): 0.619 ± 0.007 |
| C[C@@H](NC(=O)OC(C)(C)C)C(=O)N[C@@H](Cc1c[nH]c2ccccc12)C(=O)OCc1cc(C(F)(F)F)cc(C(F)(F)F)c1 [Compound 2a, 3,5-bis(trifluoromethyl)benzyl (tert-butoxycarbonyl)-D-alanyl-L-tryptophanate] | 1530 ± 279 | 135 ± 108 |  |
| O=C(O)CN1CCN(CC(=O)O)CCN(CC(=O)N[C@@H](Cc2c[nH]c3ccccc23)C(=O)OCc2cc(C(F)(F)F)cc(C(F)(F)F)c2)CCN(CC(=O)O)CC1 [Ga-1d] | 112 ± 3 | 5.1 ± 2 |  |
| O=C(O)CN1CCN(CC(=O)O)CCN(CC(=O)NCCCCCC(=O)N[C@@H](Cc2c[nH]c3ccccc23)C(=O)OCc2cc(C(F)(F)F)cc(C(F)(F)F)c2)CCN(CC(=O)O)CC1 [[^177Lu]Lu-4d, metal not drawn] |  |  | logD (physchem; [1]): 0.866 ± 0.019 |
| O=C(O)CN1CCN(CC(=O)O)CCN(CC(=O)N[C@@H](Cc2c[nH]c3ccccc23)C(=O)OCc2cc(C(F)(F)F)cc(C(F)(F)F)c2)CCN(CC(=O)O)CC1 [[^68Ga]Ga-1d, metal not drawn] |  |  | logD (physchem; [2]): -0.085 ± 0.015 |
| C[C@@H](NC(=O)CN1CCN(CC(=O)O)CCN(CC(=O)O)CCN(CC(=O)O)CC1)C(=O)N[C@@H](Cc1c[nH]c2ccccc12)C(=O)OCc1cc(C(F)(F)F)cc(C(F)(F)F)c1 [[^177Lu]Lu-2d, metal not drawn] |  |  | logD (physchem; [1]): 0.704 ± 0.005 |
| CC(C)(C)OC(=O)NCCCCCC(=O)NCCCCCC(=O)N[C@@H](Cc1c[nH]c2ccccc12)C(=O)OCc1cc(C(F)(F)F)cc(C(F)(F)F)c1 [Compound 5a, 3,5-bis(trifluoromethyl)benzyl (6-(6-((tert-butoxycarbonyl)amino)hexanamido)hexanoyl)-L-tryptophanate] | 762 ± 295 | 4.5 ± 2.8 | IC50 (Mean ± SD) rNK1R (rNK1R): submicromolar |
| N[C@@H](Cc1c[nH]c2ccccc12)C(=O)OCc1cc(C(F)(F)F)cc(C(F)(F)F)c1.O=C(O)C(F)(F)F [Compound 1b, (S)-1-((3,5-bis(trifluoromethyl)benzyl)oxy)-3-(1H-indol-3-yl)-1-oxopropan-2-aminium 2,2,2-trifluoroacetate] | > 10000 | 359 ± 132 | fold weaker hNK1R binding than parent compound (hNK1R): 14 × |
| C[C@@H](NC(=O)CN1CCN(CC(=O)O)CCN(CC(=O)O)CCN(CC(=O)O)CC1)C(=O)N[C@H](C)C(=O)N[C@@H](Cc1c[nH]c2ccccc12)C(=O)OCc1cc(C(F)(F)F)cc(C(F)(F)F)c1 [[^68Ga]Ga-3d, metal not drawn] |  |  | logD (physchem; [2]): -0.259 ± 0.017 |
| C[C@@H](NC(=O)CN1CCN(CC(=O)O)CCN(CC(=O)O)CCN(CC(=O)O)CC1)C(=O)N[C@@H](Cc1c[nH]c2ccccc12)C(=O)OCc1cc(C(F)(F)F)cc(C(F)(F)F)c1 [[^68Ga]Ga-2d, metal not drawn] |  |  | logD (physchem; [2]): -0.06 ± 0.02 |
| CC(C)(C)OC(=O)NCCCCCC(=O)N[C@@H](Cc1c[nH]c2ccccc12)C(=O)OCc1cc(C(F)(F)F)cc(C(F)(F)F)c1 [Compound 4a, 3,5-bis(trifluoromethyl)benzyl (6-((tert-butoxycarbonyl)amino)hexanoyl)-L-tryptophanate] | 1660 ± 1050 | 60.7 ± 31.9 |  |
| CC(=O)N[C@H](C)C(=O)N[C@@H](Cc1c[nH]c2ccccc12)C(=O)OCc1cc(C(F)(F)F)cc(C(F)(F)F)c1 [Compound 2c, 3,5-bis(trifluoromethyl)benzyl acetyl-D-alanyl-L-tryptophanate] | 2280 ± 703 | 25.3 ± 0.4 |  |
| C[C@@H](N)C(=O)N[C@@H](Cc1c[nH]c2ccccc12)C(=O)OCc1cc(C(F)(F)F)cc(C(F)(F)F)c1 [Compound 2b, (R)-1-(((S)-1-((3,5-bis(trifluoromethyl)benzyl)oxy)-3-(1H-indol-3-yl)-1-oxopropan-2-yl)amino)-1-oxopropan-2-aminium 2,2,2-trifluoroacetate] | 4680 ± 1320 | 25.4 ± 12.5 |  |
| CC(=O)N[C@H](C)C(=O)N[C@H](C)C(=O)N[C@@H](Cc1c[nH]c2ccccc12)C(=O)OCc1cc(C(F)(F)F)cc(C(F)(F)F)c1 [Compound 3c, 3,5-bis(trifluoromethyl)benzyl acetyl-D-alanyl-D-alanyl-L-tryptophanate] | 1140 ± 289 | 13.5 ± 12.1 |  |
| CC(C)(C)OC(=O)N[C@@H](Cc1c[nH]c2ccccc12)C(=O)OCc1cc(C(F)(F)F)cc(C(F)(F)F)c1 [Compound 1a, 3,5-bis(trifluoromethyl)benzyl (tert-butoxycarbonyl)-L-tryptophanate] | 2930 ± 1520 | 180 ± 112 | fold weaker hNK1R binding than parent compound (hNK1R): 7 × |
| C[C@@H](NC(=O)OC(C)(C)C)C(=O)N[C@H](C)C(=O)N[C@@H](Cc1c[nH]c2ccccc12)C(=O)OCc1cc(C(F)(F)F)cc(C(F)(F)F)c1 [Compound 3a, 3,5-bis(trifluoromethyl)benzyl (tert-butoxycarbonyl)-D-alanyl-D-alanyl-L-tryptophanate] | 745 ± 311 | 13.9 ± 11.2 | IC50 (Mean ± SD) rNK1R (rNK1R): submicromolar |
| C[C@@H](N)C(=O)N[C@H](C)C(=O)N[C@@H](Cc1c[nH]c2ccccc12)C(=O)OCc1cc(C(F)(F)F)cc(C(F)(F)F)c1 [Compound 3b, (R)-1-(((R)-1-(((S)-1-((3,5-bis(trifluoromethyl)benzyl)oxy)-3-(1H-indol-3-yl)-1-oxopropan-2-yl)amino)-1-oxopropan-2-yl)amino)-1-oxopropan-2-aminium 2,2,2-trifluoroacetate] | 4010 ± 1370 | 80.8 ± 59.7 |  |

More lines, main results first:

| IC50 (rNK1R) [nM] | IC50 (hNK1R) [nM] | Structure (SMILES) | other results |
| --- | --- | --- | --- |
| 655 ± 120 | 14.3 ± 5.2 | CC(=O)NCCCCCC(=O)NCCCCCC(=O)N[C@@H](Cc1c[nH]c2ccccc12)C(=O)OCc1cc(C(F)(F)F)cc(C(F)(F)F)c1 [Compound 5c, 3,5-bis(trifluoromethyl)benzyl (6-(6-acetamidohexanamido)hexanoyl)-L-tryptophanate] | IC50 (Mean ± SD) rNK1R (rNK1R): submicromolar |
| 572 ± 41 | 20.4 ± 10.2 | NCCCCCC(=O)NCCCCCC(=O)N[C@@H](Cc1c[nH]c2ccccc12)C(=O)OCc1cc(C(F)(F)F)cc(C(F)(F)F)c1.O=C(O)C(F)(F)F [Compound 5b, (S)-6-((6-((1-((3,5-bis(trifluoromethyl)benzyl)oxy)-3-(1H-indol-3-yl)-1-oxopropan-2-yl)amino)-6-oxohexyl)amino)-6-oxohexan-1-aminium 2,2,2-trifluoroacetate] | IC50 (Mean ± SD) rNK1R (rNK1R): submicromolar |
|  | 8.7 ± 3.2 | O=C(O)CN1CCN(CC(=O)O)CCN(CC(=O)NCCCCCC(=O)N[C@@H](Cc2c[nH]c3ccccc23)C(=O)OCc2cc(C(F)(F)F)cc(C(F)(F)F)c2)CCN(CC(=O)O)CC1 [Compound 4d] |  |
| 1400 ± 319 | 35.4 ± 23.6 | NCCCCCC(=O)N[C@@H](Cc1c[nH]c2ccccc12)C(=O)OCc1cc(C(F)(F)F)cc(C(F)(F)F)c1 [Compound 4b, (S)-6-((1-((3,5-bis(trifluoromethyl)benzyl)oxy)-3-(1H-indol-3-yl)-1-oxopropan-2-yl)amino)-6-oxohexan-1-aminium 2,2,2-trifluoroacetate] |  |
| 1950 ± 641 | 83.1 ± 69.3 | CC(=O)NCCCCCC(=O)N[C@@H](Cc1c[nH]c2ccccc12)C(=O)OCc1cc(C(F)(F)F)cc(C(F)(F)F)c1 [Compound 4c, 3,5-bis(trifluoromethyl)benzyl (6-acetamidohexanoyl)-L-tryptophanate] |  |
